Assays:
[1] = Polymorph screening, physical stability of crystalline embodiments of compound Ex. 1; format: physicochemical; details: for physical stability of solid form after AAC: 2 days at 40° C./70% RH, HT-XRPD; for physical stability of solid form: ambient conditions; for physical stability of solid form in climate chamber: four days, HR-XRPD
Procedure: Long term slurry experiments were performed by suspending compound embodiment 1s in twenty neat solvents and stirred at room temperature for two weeks and at 50° C. for one week. Upon completion of the equilibration time, the residual solids were separated from the mother liquors. The solids were dried under ambient conditions and dried under vacuum (5 mBar) before being analyzed by HT-XRPD. Subsequently, the solids were exposed to accelerated aging conditions (40° C./70% relative humidity) for two days and again analyzed by HT-XRPD.
Embodiment 1s converted to hydrated embodiment 10 when it was exposed to 100% RH at 25° C. […] This behavior is attributable to an unequally strong binding of all the hydration/solvation molecules. In this case, embodiment 10 would have a less strongly bound second water molecule that would be lost under ambient conditions. More precisely, the physical stability of embodiment 1s was investigated in climate chambers by exposing a 20 mg sample of such embodiment to 40° C. and 70% relative humidity for four days, and another 20 mg sample of the same embodiment was exposed also for four days to 25° C. and 100% relative humidity. After four days, the various solid samples were analyzed by HR-XRPD, the crystal cell parameters were determined and the diffractograms were indexed. From bottom to top, the first diffractogram in FIG. 6 corresponds to embodiment 1s as starting material, and the second corresponds to the same form after a 4-day exposure to 40° C. and 70% relative humidity, noted as “1s 70 RH” in the same figure. […] Indexing for such form was not possible due to the small amount in which it was present. The third diffractogram corresponds to embodiment 1s after a 4-day exposure to 25° C. and 100% relative humidity, noted as “10” in the same figure. […] Upon dehydration, both embodiments 1s and 10 re-crystallized to the anhydrous form with a melting point of 148° C.
The mother liquors of the solvent equilibration experiments performed at 50° C. were filtered at 50° C. to remove any particulate matter. The suspensions at 50° C. were filtered using 0.2 μm PTFE filters, and the solutions were placed at 5° C. and aged for 72 hours. When solids had precipitated during aging these solids were separated from the liquid, dried under ambient conditions and under vacuum, and analyzed by HT-XRPD. The remaining mother liquors were allowed to slowly evaporate and the remaining solids were analyzed by HT-XRPD. The samples in which no precipitation occurred were placed under vacuum and the dried solids were analyzed by HT-XRPD. All the solids were then exposed to AAC (2 days at 40° C./70% RH) and re-analyzed by HT-XRPD.
The cooling/evaporative crystallization experiments at μL scale were performed in a 96-well plate, using 12 neat solvents and 12 solvent mixtures and applying four temperature profiles. In each well approximately 4 mg of embodiment 1s was solid dosed. Subsequently, the crystallization solvents (80 μL) and solvent mixtures were added to reach a concentration of 50 mg/mL, and the plate, with each well individually sealed, to subsequently undergo one of the four temperature profiles. Upon completion of the temperature profile the solvents were allowed to evaporate at low ambient pressure (24 hours) and the remaining solids were analyzed by HT-XRPD before and after exposure to AAC for 2 days (40° C./70% RH).
The cooling crystallization experiments with hot filtration were performed from supersaturated solutions of compound Ex. 1 prepared at 50° C. in different solvent mixtures. The hot filtrated solutions underwent a 48-hour cooling profile. The vials in which solids had precipitated after the temperature profile were centrifuged and the solids were separated from the liquid and analyzed by HT-XRPD (after drying under vacuum). If no solids had precipitated the solutions were evaporated under vacuum and the solids analyzed by HT-XRPD. […]

physchem = details: thermodynamic from solid
MDCK-MDR1 cell line = assay: MDCK-MDR1 permeability assay; format: in vitro ADME; details: @ 5 μM, apical to basolateral, with P-gp inhibitor elacridar (2 μM)
P-gp (MDR1) = assay: MDCK-MDR1 permeability assay; format: in vitro ADME; details: dog
[2] = In vivo oral (p.o.) dosing, plasma and colon concentrations (Protocols 1 and 2); parameters: species or system female C57BL/6 mice; details: mice, 25 mg/kg p.o.
Procedure: These protocols are described below under the heading In vivo Studies. Three non-fasted female C57BL/6 mice were orally administered test compound at a dose of 25 mg/kg p.o. as a solution in 20% hydroxypropyl-beta-cyclodextrin (HPβCD) at a dose volume of 5 mL/kg. Blood samples were collected at 0.5, 2, and 4 h post dose via retro-orbital bleed or venipuncture of the dorsal metatarsal vein. Blood samples were collected into tubes containing anticoagulant (Heparin-Na) and placed on wet ice. […] Colon samples were collected at 4 h post dose. […] The colon was further washed by putting it in 5 mL of saline and shaken for 5 seconds. The colon sample was then patted dry, weighed, and homogenized as 1 part tissue (g) to 4 parts HPLC grade water (mL). Concentrations of the compound in plasma and colon homogenate were determined using a qualified liquid chromatography-triple quadrupole mass spectrometry (LC-MS/MS) method. […] Three non-fasted female C57BL/6 mice were orally administered test compound at a dose of 25 mg/kg p.o. as a solution in 20% HPβCD at a dose volume of 5 mL/kg. Blood samples were collected at 0.5, 2, and 4 h post dose via retro-orbital bleed or dorsal metatarsal vein. Blood samples were collected into tubes containing anticoagulant (Heparin-Na) and placed on wet ice. […] Colon samples were collected at 4 h post dose. […] The colon was further washed by putting it in 5 mL of saline and shaken for 5 seconds. The colon sample was then patted dry, weighed, and homogenized as 1 part tissue (g) to 4 parts HPLC grade water (mL). Concentrations of the compound in plasma and colon homogenate were determined using a qualified liquid chromatography-triple quadrupole mass spectrometry (LC-MS/MS) method.

JAK3-JH1JH2 = JAK3-JH1JH2 (Homo sapiens (Human), UniProt P52333); assay: Enzymatic inhibition assay (HTMS); format: biochemical; details: 150 μM ATP; read-out: JAK3_I_JH1JH2 IC50
Chain of JAK3-JH1JH2 (P52333 512-1124): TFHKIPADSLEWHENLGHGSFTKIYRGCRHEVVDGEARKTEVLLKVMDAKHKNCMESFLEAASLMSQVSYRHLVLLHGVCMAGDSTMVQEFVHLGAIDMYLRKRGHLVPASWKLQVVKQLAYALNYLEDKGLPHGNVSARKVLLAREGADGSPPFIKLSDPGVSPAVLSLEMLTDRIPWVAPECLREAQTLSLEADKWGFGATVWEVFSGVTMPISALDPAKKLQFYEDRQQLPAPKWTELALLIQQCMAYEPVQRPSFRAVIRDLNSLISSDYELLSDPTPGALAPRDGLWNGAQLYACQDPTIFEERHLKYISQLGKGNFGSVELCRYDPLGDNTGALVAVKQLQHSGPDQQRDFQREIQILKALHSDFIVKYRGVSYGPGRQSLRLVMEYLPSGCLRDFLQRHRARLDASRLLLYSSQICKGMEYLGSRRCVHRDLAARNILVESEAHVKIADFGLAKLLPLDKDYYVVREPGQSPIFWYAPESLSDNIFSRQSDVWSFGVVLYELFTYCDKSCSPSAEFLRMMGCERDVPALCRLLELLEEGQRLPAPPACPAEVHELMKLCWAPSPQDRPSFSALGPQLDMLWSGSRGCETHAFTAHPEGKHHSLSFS
Source text: (§1) JAK1-JH1JH2 (574-1154 with a His-GST Tag and a C-terminal tev (ENLYFQ-G) cleavage site), JAK3-JH1JH2 (512-1124 with a GST Tag and a C-terminal tev (ENLYFQ-G) cleavage site), and Tyk2-JH1JH2 (8H_tev_580-1182-C936A-C1142A with a C-terminal tev (ENLYFQ-G) cleavage site) were purified internally. […] LC/MS grade water and acetonitrile (ACN), were purchased from HoneyWell, Burdick & Jackson (Muskegon, Mich., USA). Dimethylsulfoxide 99.8% (DMSO) and trifluoroacetic acid 99.5% (TFA) were purchased from EMD Chemical (Gibbstown, N.J., USA). Adenosine triphosphate (ATP), 4-morpholinepropanesulfonic acid (MOPS), magnesium chloride (MgCl2), ethylenediaminetetraacetic acid (EDTA), dithiothreitol (DTT), formic acid>95% (FA) and Tween-20 were purchased from Sigma (St Louis, Mo., USA). 384-well polypropylene plates, Cat#781280 were purchased from Greiner (Monroe, N.C.), RapidFire™ cartridge A C4 Column (Agilent Technologies, Santa Clara, Calif.).
(§2) The HTMS experiments were performed in positive ionization mode on a RapidFire 300 instrument (Agilent Technologies, Santa Clara, Calif.), coupled with an ABSiex QTrap 4000 system with an Electrospray Ionization source (RF-MS) (Concord, ON, Canada). […] The entire system was operated using the RapidFire software interfaced with Analyst software for the mass spectrometer.
(§3) 11-point dosing series were made for each compound by serially diluting 1:3 or 1:4 in DMSO, with point 12 being a DMSO control. From the serial dilution plates, sample was transferred to a 384 wells assay plate (#781280, Greiner, Monroe, N.C.) using Labcyte Echo (Sunnyvale, Calif.), or Biosero ATS (San Diego, Calif.). The compounds were tested in duplicate. Column 12 was used for positive controls, and column 24 contained negative controls with no enzyme added. A compound from our internal collection, with inhibitory activity for JAK isoforms, was used as a reference compound. The final concentration of DMSO was ≤0.25% in a 20 μL reaction. The enzyme reaction was initiated by the addition of 10 μL of enzyme and ATP mixture to 10 μL of substrate solution prepared in reaction buffer (50 mM MOPS pH 7.5, 10 mM MgCl2, 1 mM EDTA, 2 mM DTT, 0.002% Tween-20). The Tyk2 enzyme was pre-incubated with 2 mM ATP for 30 min prior to the reaction initiation. Immediately after the addition of the enzyme to the reaction mixture, the plate was centrifuged at 1000 rpm for 1 minute and incubated at 25° C. for 45 minutes for JAK3 and 90 minutes for JAK1, JAK2 and Tyk2. The reaction was quenched by the addition of 20 μL of 0.5% TFA containing 0.15 μM of internal standard peptide using Multidrop Combi reagent dispenser (Thermo Scientific, Waltham, Mass.). […] After the quench, the assay plate was centrifuged at 3000 rpm for 3 minutes and sealed with pierceable aluminum foil (Cat#06644-001, Agilent) using a PlateLoc (Agilent Technologies, Santa Clara, Calif.). The plates then were transferred on to the RapidFire for the MS analysis. Compound inhibition was assessed by a decrease of the phosphorylated product levels in sample wells compared to the non-inhibited enzyme reaction.
(§4) The sample analysis on the RapidFire was performed using a mobile phase A1 consisting of Water/TFA/FA (100:0.01:0.1, v/v/v), a mobile phase B1 consisting of ACN/Water/TFA/FA (80:20:0.01:0.1, v/v/v). […] The samples were aspirated directly from the 384-well assay plate and delivered onto RF-MS microscale solid-phase C4 extraction cartridge (Type A). The undesired component such as salt, cofactor, detergent and large protein were washed out and the retained analytes (substrate, product and IS) were coeluted directly onto the AB Siex Qtrap 4000 system.

JAK2-JH1JH2 = JAK2-JH1JH2 (Homo sapiens (Human), UniProt O60674); assay: Enzymatic inhibition assay (HTMS); format: biochemical; details: read-out: JAK2_I_JH1JH2 IC50
Source text: as §1, §2, §3, §4

Tyk2-JH1JH2 = Tyk2-JH1JH2 (Homo sapiens (Human), UniProt P29597, C1142A/C936A); assay: Enzymatic inhibition assay (HTMS); format: biochemical; details: read-out: Tyk2_I_JH1JH2 IC50
Chain of Tyk2-JH1JH2 (P29597 580-1182 C936A/C1142A): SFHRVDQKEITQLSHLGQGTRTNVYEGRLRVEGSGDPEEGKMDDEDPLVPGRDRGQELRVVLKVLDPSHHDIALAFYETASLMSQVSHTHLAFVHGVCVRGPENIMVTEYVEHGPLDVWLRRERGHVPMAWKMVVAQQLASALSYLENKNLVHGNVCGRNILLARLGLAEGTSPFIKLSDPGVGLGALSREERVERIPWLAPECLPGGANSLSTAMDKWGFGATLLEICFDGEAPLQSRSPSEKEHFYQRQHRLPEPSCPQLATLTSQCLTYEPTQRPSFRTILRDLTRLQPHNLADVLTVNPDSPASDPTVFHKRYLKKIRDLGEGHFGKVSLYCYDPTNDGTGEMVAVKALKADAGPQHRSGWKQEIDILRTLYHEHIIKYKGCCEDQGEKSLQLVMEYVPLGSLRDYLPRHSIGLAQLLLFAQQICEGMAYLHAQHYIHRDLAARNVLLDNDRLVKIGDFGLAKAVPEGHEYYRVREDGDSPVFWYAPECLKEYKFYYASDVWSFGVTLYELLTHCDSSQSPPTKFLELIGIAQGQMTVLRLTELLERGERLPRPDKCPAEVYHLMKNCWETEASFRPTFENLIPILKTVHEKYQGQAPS
Source text: as §1, §2, §3, §4

JAK1-JH1JH2 = JAK1-JH1JH2 (Homo sapiens (Human), UniProt P23458); assay: Enzymatic inhibition assay (HTMS); format: biochemical
Chain of JAK1-JH1JH2 (P23458 574-1154): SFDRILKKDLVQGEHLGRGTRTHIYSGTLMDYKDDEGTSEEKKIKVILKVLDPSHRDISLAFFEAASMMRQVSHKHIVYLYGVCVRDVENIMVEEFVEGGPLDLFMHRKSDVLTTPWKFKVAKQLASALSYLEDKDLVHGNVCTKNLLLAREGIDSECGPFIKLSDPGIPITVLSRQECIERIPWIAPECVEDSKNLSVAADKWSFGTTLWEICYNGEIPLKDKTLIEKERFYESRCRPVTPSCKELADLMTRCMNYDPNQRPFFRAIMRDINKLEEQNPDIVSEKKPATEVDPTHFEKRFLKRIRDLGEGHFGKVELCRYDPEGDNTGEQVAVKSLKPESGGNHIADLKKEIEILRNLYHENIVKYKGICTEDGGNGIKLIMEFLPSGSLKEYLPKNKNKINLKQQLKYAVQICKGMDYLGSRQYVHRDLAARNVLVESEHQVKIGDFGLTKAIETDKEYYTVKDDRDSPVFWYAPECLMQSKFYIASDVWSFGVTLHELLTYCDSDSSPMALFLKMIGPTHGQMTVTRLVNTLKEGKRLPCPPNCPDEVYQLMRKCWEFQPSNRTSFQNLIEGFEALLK
Source text: as §1, §2, §3, §4

For `CC(C)(O)CNC(=O)Cc1nc2cnc3[nH]ccc3c2n1[C@H]1CC[C@H](CC#N)CC1` [Embodiment 5], the “physical stability of solid form after AAC” value [1] was “physically unstable”.
In the case of `CC(C)(O)CNC(=O)Cc1nc2cnc3[nH]ccc3c2n1[C@H]1CC[C@H](CC#N)CC1` [embodiment 10], the “physical stability of solid form” value [1] is reported as “physically not stable”.
For `C[C@@H](O)c1nc2cnc3[nH]ccc3c2n1[C@H]1CC[C@H](CC#N)CC1` [C, reference compound], the solubility (physchem; pH 6.5, fassif) was greater than 400 µM, the solubility (physchem; simulated gastric fluid) was greater than 400 µM and the “MDCK-MDR1 P^eapp(A-B)” value (MDCK-MDR1 cell line) was 2.5 10^−6 cm/sec. For the same compound, the Papp A→B at 60 min, 5 μM (P-gp (MDR1); MDCK-MDR1, pH 7.4, @ 5 μM, apical to basolateral, without elacridar, read-out: MDCK-MDR1 Papp(A-B)) was 0.5 ×10⁻⁶ cm/s, the Papp B→A at 60 min, 5 μM (P-gp (MDR1); MDCK-MDR1, pH 7.4, @ 5 μM, basolateral to apical) was 23.1 ×10⁻⁶ cm/s and the “Plasma Concentration After p.o. Dosing, Mean” value ([2]; Time = 0.5 h) was […]. The “Plasma Concentration After p.o. Dosing, Mean” value ([2]; Time = 2 h) was […], the “Colon Concentration After p.o. Dosing, Mean” value ([2]; Time = 4 h) was […] and the “Plasma Concentration After p.o. Dosing, Mean” value ([2]; Time = 4 h) was […]. The IC50 (JAK3-JH1JH2) was 49.7 nM, the IC50 (JAK2-JH1JH2) was […] and the IC50 (Tyk2-JH1JH2) was 0.2 nM. The IC50 (JAK1-JH1JH2) was less than 0.2 nM.
With `CC(C)(O)CNC(=O)Cc1nc2cnc3[nH]ccc3c2n1[C@H]1CC[C@H](CC#N)CC1` [Embodiment 4] the “physical stability of solid form” value [1] was “did not appear to be physically stable”.
With `CC(C)(O)CNC(=O)Cc1nc2cnc3[nH]ccc3c2n1[C@H]1CC[C@H](CC#N)CC1` [embodiment 2] the “physical stability of solid form after AAC” value [1] was “converted to embodiment 3e”.
For `CC(C)(O)CNC(=O)Cc1nc2cnc3[nH]ccc3c2n1[C@H]1CC[C@H](CC#N)CC1` [embodiment 1s], the “physical stability of solid form in climate chamber” value ([1]; 25° C. and 100% relative humidity) was “conversion of embodiment 1s into embodiment 10” and the “physical stability of solid form in climate chamber” value ([1]; 40° C. and 70% relative humidity) was “initial embodiment 1s had been recovered”.
With `CC(C)(O)CNC(=O)Cc1nc2cnc3[nH]ccc3c2n1[C@H]1CC[C@H](CC#N)CC1` [Embodiment 6] the “physical stability of solid form after AAC” value [1] was “stable solid form”.
For `CC(C)(O)CNC(=O)Cc1nc2cnc3[nH]ccc3c2n1[C@H]1CC[C@H](CC#N)CC1` [Embodiment 7], the “physical stability of solid form after AAC” value [1] was “physically stable”.

From patent publication US10294226B2, “Small molecule inhibitors of the JAK family of kinases” (Janssen Pharmaceutica NV, priority 2016, dated 2019)
